The results in this text go back to ChEMBL document CHEMBL5576135, “Discovery of Indolo[3,2-c]isoquinoline Derivatives as Novel Top1/2 Dual Inhibitors with Orally Efficacious Antitumor Activity and Low Toxicity” (J Med Chem, 2024).

Activity calls are given as the source filed them. The rule behind the calls is not given here.

The target in test [1] is DNA topoisomerase 2-alpha (Homo sapiens) (UniProt P11388). As to the kind of experiment: Inhibition of Topoisomerase 2 (unknown origin) using pBR322 DNA as substrate at 0.5 uM incubated for 15 mins by EtBr staining based agarose gel electrophoresis method.
Chain of DNA topoisomerase 2-alpha (Homo sapiens) (P11388 whole entry): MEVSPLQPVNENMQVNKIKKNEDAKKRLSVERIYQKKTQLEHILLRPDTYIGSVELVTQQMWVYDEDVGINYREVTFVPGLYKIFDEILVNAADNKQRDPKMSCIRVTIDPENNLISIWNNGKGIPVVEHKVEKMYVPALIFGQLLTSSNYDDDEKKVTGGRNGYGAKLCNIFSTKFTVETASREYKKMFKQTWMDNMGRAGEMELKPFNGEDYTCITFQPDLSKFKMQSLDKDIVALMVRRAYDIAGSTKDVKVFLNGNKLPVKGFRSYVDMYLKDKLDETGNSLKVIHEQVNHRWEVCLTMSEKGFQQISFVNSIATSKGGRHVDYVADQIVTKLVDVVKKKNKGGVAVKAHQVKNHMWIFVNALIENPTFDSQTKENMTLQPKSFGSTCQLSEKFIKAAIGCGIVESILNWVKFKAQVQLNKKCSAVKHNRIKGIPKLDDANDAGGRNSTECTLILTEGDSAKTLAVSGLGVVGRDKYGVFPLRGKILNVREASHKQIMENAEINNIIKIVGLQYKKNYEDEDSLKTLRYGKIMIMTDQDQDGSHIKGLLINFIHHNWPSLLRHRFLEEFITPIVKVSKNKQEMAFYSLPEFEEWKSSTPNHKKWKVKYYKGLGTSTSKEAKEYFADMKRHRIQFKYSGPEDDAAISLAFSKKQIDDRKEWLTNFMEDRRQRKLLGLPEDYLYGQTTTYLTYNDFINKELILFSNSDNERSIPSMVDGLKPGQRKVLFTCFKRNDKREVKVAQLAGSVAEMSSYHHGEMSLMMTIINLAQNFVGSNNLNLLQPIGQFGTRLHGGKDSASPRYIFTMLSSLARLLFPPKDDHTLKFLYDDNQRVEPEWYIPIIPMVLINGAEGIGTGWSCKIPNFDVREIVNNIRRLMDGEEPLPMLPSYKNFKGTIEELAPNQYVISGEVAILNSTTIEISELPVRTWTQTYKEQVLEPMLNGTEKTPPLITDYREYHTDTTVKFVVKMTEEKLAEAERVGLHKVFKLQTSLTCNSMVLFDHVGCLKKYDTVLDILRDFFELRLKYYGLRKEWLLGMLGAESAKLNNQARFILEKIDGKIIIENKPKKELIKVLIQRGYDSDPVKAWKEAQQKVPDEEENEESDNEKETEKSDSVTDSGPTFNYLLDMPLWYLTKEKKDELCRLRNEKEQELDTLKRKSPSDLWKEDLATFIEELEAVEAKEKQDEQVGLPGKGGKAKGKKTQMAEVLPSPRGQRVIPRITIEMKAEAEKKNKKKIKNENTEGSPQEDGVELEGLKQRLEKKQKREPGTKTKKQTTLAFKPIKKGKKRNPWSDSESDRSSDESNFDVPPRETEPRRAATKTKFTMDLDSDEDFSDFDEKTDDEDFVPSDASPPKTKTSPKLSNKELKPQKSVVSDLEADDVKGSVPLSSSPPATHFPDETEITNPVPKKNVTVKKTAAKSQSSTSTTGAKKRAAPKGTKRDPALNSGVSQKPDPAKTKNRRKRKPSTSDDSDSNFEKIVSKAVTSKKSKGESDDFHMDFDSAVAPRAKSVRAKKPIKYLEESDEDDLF
A further test has as its system NCI-H2228. The test can be described thus: Antiproliferative activity against human NCI-H2228 cells assessed as inhibition of cell growth incubated for 96 hrs by MTT based ELISA. Format: functional. Conditions: NCI-H2228, 96 h.
The target of test [2] is T1, DNA topoisomerase 1 (Homo sapiens) (UniProt P11387).
T1 sequence (whole entry): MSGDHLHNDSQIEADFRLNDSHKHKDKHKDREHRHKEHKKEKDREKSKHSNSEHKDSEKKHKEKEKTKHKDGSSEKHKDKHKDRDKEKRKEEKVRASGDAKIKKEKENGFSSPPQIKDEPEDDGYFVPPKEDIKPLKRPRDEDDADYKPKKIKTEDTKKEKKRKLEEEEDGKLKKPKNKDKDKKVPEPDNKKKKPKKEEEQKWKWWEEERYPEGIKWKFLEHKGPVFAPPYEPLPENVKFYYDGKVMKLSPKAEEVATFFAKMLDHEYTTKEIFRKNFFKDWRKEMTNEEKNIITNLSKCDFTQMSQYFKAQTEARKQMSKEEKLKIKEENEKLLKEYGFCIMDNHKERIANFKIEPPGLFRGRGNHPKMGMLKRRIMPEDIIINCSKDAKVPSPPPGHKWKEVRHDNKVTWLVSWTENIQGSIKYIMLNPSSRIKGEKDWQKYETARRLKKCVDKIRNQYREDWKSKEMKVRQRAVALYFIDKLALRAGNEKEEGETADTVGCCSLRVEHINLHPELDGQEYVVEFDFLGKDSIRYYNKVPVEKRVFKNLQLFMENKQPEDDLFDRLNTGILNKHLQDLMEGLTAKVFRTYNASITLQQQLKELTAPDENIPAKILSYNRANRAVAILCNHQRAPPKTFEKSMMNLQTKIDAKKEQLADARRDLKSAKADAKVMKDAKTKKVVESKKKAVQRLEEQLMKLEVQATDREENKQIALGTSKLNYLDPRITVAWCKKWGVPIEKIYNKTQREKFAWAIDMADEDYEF
The test can be described thus: Inhibition of Topoisomerase I (unknown origin) using pBR322 DNA as substrate at 2 uM incubated for 15 mins by EtBr staining based agarose gel electrophoresis method.

Test [3] deals with DNA topoisomerase 2-alpha (Homo sapiens) (UniProt P11388). The test can be described thus: Inhibition of Topoisomerase 2 (unknown origin) using pBR322 DNA as substrate at 50 uM incubated for 15 mins by EtBr staining based agarose gel electrophoresis method.
Test [4] has the same target. The test can be described thus: Inhibition of Topoisomerase 2 (unknown origin) using pBR322 DNA as substrate at 100 uM incubated for 15 mins by EtBr staining based agarose gel electrophoresis method relative to control.
The target of test [5] is T1, DNA topoisomerase 1 (Homo sapiens). The test can be described thus: Inhibition of Topoisomerase I (unknown origin) using pBR322 DNA as substrate at 1 uM incubated for 15 mins by EtBr staining based agarose gel electrophoresis method.
The target is the same in test [6]. The test can be described thus: Inhibition of Topoisomerase I (unknown origin) using pBR322 DNA as substrate at 200 uM incubated for 15 mins by EtBr staining based agarose gel electrophoresis method relative to control.
The target is the same in test [7]. As to the kind of experiment: Inhibition of Topoisomerase I (unknown origin) using pBR322 DNA as substrate at 50 uM incubated for 15 mins by EtBr staining based agarose gel electrophoresis method.
Another test concerns MDA-MB-231. As to the kind of experiment: Antiproliferative activity against human MDA-MB-231 cells assessed as inhibition of cell growth incubated for 96 hrs by MTT based ELISA. Format: functional. Conditions: MDA-MB-231, 96 h.
The test system of another test is PC-3. The test can be described thus: Antiproliferative activity against human PC-3 cells assessed as inhibition of cell growth incubated for 96 hrs by MTT based ELISA. Type of test: functional. Conditions: PC-3, 96 h. For orientation: ELISA stands for enzyme-linked immunosorbent assay.
The test system of another test is HCT-116. As to the kind of experiment: Antiproliferative activity against human HCT-116 cells assessed as inhibition of cell growth incubated for 96 hrs by MTT based ELISA. Format: functional. Conditions: HCT-116, 96 h.
Another test concerns Huh-7. The test can be described thus: Antiproliferative activity against human Huh-7 cells assessed as inhibition of cell growth incubated for 96 hrs by MTT based ELISA. Format: functional. Conditions: Huh-7, 96 h.
Test [8] has as its target DNA topoisomerase 2-alpha (Homo sapiens) (UniProt P11388). The test can be described thus: Inhibition of Topoisomerase 2 (unknown origin) using pBR322 DNA as substrate at 10 uM incubated for 15 mins by EtBr staining based agarose gel electrophoresis method.
For another test, the system named is MCF7. The test can be described thus: Antiproliferative activity against human MCF7 cells assessed as inhibition of cell growth incubated for 96 hrs by MTT based ELISA. Conditions: MCF7, 96 h. Format: functional.
The target in test [9] is T1, DNA topoisomerase 1 (Homo sapiens). As to the kind of experiment: Inhibition of Topoisomerase I (unknown origin) using pBR322 DNA as substrate at 5 uM incubated for 15 mins by EtBr staining based agarose gel electrophoresis method.
For test [10] the target is unchanged. As to the kind of experiment: Inhibition of Topoisomerase I (unknown origin) using pBR322 DNA as substrate at 10 uM incubated for 15 mins by EtBr staining based agarose gel electrophoresis method.

Usually inhibition stands for the drop in the measured response relative to a control, in per cent. As usually defined, the IC50 is the concentration that gives 50% inhibition. Take `O=C(CCCn1c2cc3c(cc2c2nc(Cl)c4ccccc4c21)OCO3)NO`: the inhibition entry in test [1], in test [2], in [3], in test [5], in test [7] and in [8] was “Active” throughout. The inhibition entry in [9] and in test [10] was “Active” each time. The IC50 in the test with NCI-H2228 was determined as 3.64 µM; with MDA-MB-231, 1.64 µM; in the test on PC-3, 2.44 µM; in the test on HCT-116, 1.87 µM; with Huh-7 it was 4.1 µM; in the test on MCF7, 2.86 µM. Moreover, the inhibition in test [4] and in test [6] was more than 95% each time.
For the molecule `COc1ccc2c(c1)c1ncc3ccccc3c1n2CCCN1CCN(C)CC1`, the half-maximal inhibitory concentration (IC50) amounted to 1.84 µM in the test on NCI-H2228; 1.68 µM in the test on MDA-MB-231; 0.74 µM in the test on PC-3; 1.17 µM with HCT-116; 2.24 µM with Huh-7; 1.12 µM with MCF7. Besides, the inhibition entry in [3], in [4], in [6] and in test [7] was “inactive” throughout.
Regarding `O=C(CCCn1c2cc3c(cc2c2[nH]c(=O)c4ccccc4c21)OCO3)NO`, the IC50 in the test with NCI-H2228 is more than 10 µM; in the test with MDA-MB-231, 4.88 µM; in the test with PC-3, 7.14 µM; with HCT-116, 4.08 µM; in the test on Huh-7 it was more than 10 µM; in the test with MCF7, 6.57 µM. Besides, the inhibition result in [3] and in test [7] was “Active” in each case. In addition, the inhibition in [4] and in test [6] was more than 95% throughout.
As to `COc1ccc2c(c1)c1nc(Cl)c3ccccc3c1n2CCCC(=O)NO`, the 50% inhibitory concentration (IC50) in the test on NCI-H2228 stood at 2.39 µM; in the test with MDA-MB-231, 0.98 µM; with PC-3, 1.66 µM; in the test with HCT-116 it was 0.74 µM; with Huh-7, 2.98 µM; in the test on MCF7, 1.51 µM. The inhibition entry in test [3], in test [7] and in [10] was “Active” in each case. The inhibition in [4] and in [6] was more than 95% throughout.
For `CN(C)CCCn1c2cc3c(cc2c2nc(Cl)c4ccccc4c21)OCO3`, the IC50 in the test with NCI-H2228 was determined as 0.96 µM; in the test with MDA-MB-231, 0.56 µM; in the test on PC-3, 0.47 µM; in the test with HCT-116, 0.26 µM; in the test on Huh-7 it was 0.94 µM; in the test on MCF7, 0.37 µM. Besides, the inhibition result in test [3], in test [7] and in [10] was “Active” in each case. In addition, the inhibition in test [4] and in test [6] was more than 95% each time.
For the molecule `O=C(CCCn1c2cc3c(cc2c2ncc4ccccc4c21)OCO3)NO`, the IC50 with NCI-H2228 is 3.07 µM; in the test on MDA-MB-231, 0.95 µM; with PC-3, 1.55 µM; in the test with HCT-116, 1.32 µM; with Huh-7, 2.89 µM; in the test on MCF7, 2.32 µM. Further, the inhibition entry in test [3], in test [7] and in test [10] was “Active” throughout. Besides, the inhibition in test [4] and in [6] was more than 95% throughout.
For the molecule `COc1ccc2c(c1)c1ncc3ccccc3c1n2CCCN1CCN(C(C)C)CC1`, the half-maximal inhibitory concentration (IC50) turned out to be 2.04 µM in the test with NCI-H2228; 2.04 µM with MDA-MB-231; 1.07 µM with PC-3; 1.38 µM with HCT-116; 2.18 µM in the test on Huh-7; 1.45 µM in the test on MCF7. The inhibition result in test [3], in test [4], in test [6] and in test [7] was “inactive” each time.
Turning to `CN(C)CCCn1c2cc3c(cc2c2[nH]c(=O)c4ccccc4c21)OCO3`, the half-maximal inhibitory concentration (IC50) with NCI-H2228 was 1.16 µM; in the test with MDA-MB-231 it was 0.48 µM; in the test on PC-3 it was 0.63 µM; in the test on HCT-116, 0.22 µM; in the test on Huh-7, 1.24 µM; in the test with MCF7, 0.6 µM. In addition, the inhibition entry in [3], in test [7] and in test [10] was “Active” throughout. Further, the inhibition in test [4] and in test [6] was more than 95% in each case.
